Literature values, collected in publication PMC12299598 (Pharmaceuticals, 2025).
Like-named read-outs stand apart in the source and are kept apart here.

Experiments:
CYP3A4 = test system: CYP3A4; set-up: method as in PMID 1764870
[1] = test system: patients treated with ibrutinib; set-up: method as in PMID 29419429
[2] = set-up: method as in PMID 38955074
[3] = test system: patients exposed to ibrutinib
BTK = conditions: lower than ibrutinib

For `COc1ccc2[nH]c([S+]([O-])Cc3ncc(C)c(OC)c3C)nc2c1` (stereo not shown) [omeprazole], the CYP3A4 inhibitor strength (CYP3A4) is given as “weak”.

For `C=CC(=O)N1CCC[C@@H](n2nc(-c3ccc(Oc4ccccc4)cc3)c3c(N)ncnc32)C1` [ibrutinib], the “Toxicity leading to discontinuation: arthralgia” value ([1]; front-line ibrutinib) is given as 41.6%, the “Toxicity leading to discontinuation: atrial fibrillation” value ([1]; front-line ibrutinib) is given as 25% and the “Toxicity leading to discontinuation: rash” value ([1]; front-line ibrutinib) is given as 16.7%. For the same compound, the “Toxicity leading to discontinuation: atrial fibrillation” value ([1]; relapsed/refractory population) was 12.3%, the “Toxicity leading to discontinuation: bleeding” value ([1]; relapsed/refractory population) was 9% and the “Toxicity leading to discontinuation: diarrhea” value ([1]; relapsed/refractory population) was 6.6%. For the same compound, the “Toxicity leading to discontinuation: infection” value ([1]; relapsed/refractory population) was 10.7%, the “Toxicity leading to discontinuation: pneumonitis” value ([1]; relapsed/refractory population) was 9.9% and the Permeability [2] was “high”. The Solubility [2] was “low”, the Absolute oral bioavailability (fasting conditions) was 3.9% and the “Time to peak concentration” value (oral administration) was 1 to 2 h. The Absolute oral bioavailability (with standard breakfast) was 8.4%, the “Cardiovascular deaths linked to ibrutinib” value [3] was 303 and the “Mortality rate of cardiovascular ADRs” value ([3]; CNS events and heart failure) was 20%. For the same compound, the “Mortality rate of cardiovascular ADRs” value ([3]; supraventricular and ventricular arrhythmias) was 8% and the Mortality rate ([3]; supraventricular arrhythmias with concurrent CNS events) was 28.8%.

In the case of `Nc1ncnc2c1c(-c1ccc(Oc3ccccc3)cc1)nn2C1CCCN(C(=O)C(O)CO)C1` (stereo not shown) [dihydrodiol metabolite], the “BTK inhibitory activity relative to ibrutinib” value (BTK) is given as 15 fold.
